Earlier results on 6 molecules are cited in patent US20090214682A1, “Composition and methods for weight loss in a subject” (priority 2008, published 2009).

Where two headings read alike, the source gives them in different places.

For series [1] the following is noted: rats.
Test in series [2]: not given
This is another data set of the same source.

The conditions of series [3]: 8 weeks, overweight subjects, vs placebo.
For series [4] the following is noted: rats, high fat diet, 12 weeks.
For series [5] the following is noted: vs placebo.
Test in series [6]: not given
The source holds these as a separate data set.

Test in series [7]: not given
The source holds these as a separate data set.

For series [8] the following is noted: obese women.

On to `O=C(O)CC(O)(C(=O)O)C(O)C(=O)O` (stereo not shown) [HCA, 1,2-dihydroxypropane-1,2,3-tricarboxylic acid], for which, in series [1], the appetite entry is on record as “repress appetite” and the fatty acid synthesis entry was “inhibit fatty acid synthesis”. In addition, the caloric intake result (clinical studies) is “reduction in caloric intake”. Also, the blood cholesterol profile entry (daily, moderate exercise, 8 weeks) is listed as “improved blood cholesterol profile”. Where the note is “daily, moderate exercise, 8 weeks, vs placebo”, the weight loss result is “increased weight loss”. Moreover, the serotonin levels entry (human, in vivo) is recorded as “significantly increased”. Also, the “fat oxidation during exercise” value (untrained men and women) was “increasing fat oxidation”.
In the case of chromium polynicotinate, the systolic blood pressure result in series [2] (vs control groups) is given as “effective in lowering systolic blood pressure”. The “free radical damage in liver and kidney tissue” value in [2] (vs controls) is recorded as “less free radical damage”. Further, the body fat result in [3] is listed as “significant loss of body fat”.
Take `Cn1c(=O)c2[nH]cnc2n(C)c1=O` [theophylline, 3,7-dihydro-1,3-dimethyl-1H-purine-2,6-dione]: the body fat entry in series [4] was “generally reduced”.
With `CCCCCCCCCCCC(C[C@@H]1OC(=O)[C@H]1CCCCCC)OC(=O)[C@H](CC(C)C)NC=O` (stereo partly drawn) [orlistat, N-formyl-L-leucine-1-[[(2S,3S)-3-hexyl-4oxo-2-oxetanyl]methyl]dodecyl ester], in [5] (one year treatment), the LDL cholesterol levels entry was “greater improvements then placebo” and the total serum cholesterol result is on record as “greater improvements then placebo”. In addition, the weight loss entry in series [5] (persons with type 2 diabetes) is “more significant weight loss then the placebo group”. The tolerability result in series [6] (60 mg vs larger dose) is listed as “generally better tolerated”. For the same molecule, in series [6] (OTC 60 mg vs prescription 120 mg), the “efficacy for weight loss relative to prescription dose” value is on record as “about 85%”. For the same molecule, in series [6] (OTC dose 60 mg), the “inhibition of absorption of ingested fats” value is listed as “about 25%”. Besides, the “average weight loss of initial body weight” value in series [6] (OTC dose 60 mg, over 16 weeks) is reported as “about 5%”.
Take `[Cr]` [Chromium]: in series [7] (combined with exercise), the body fat entry is “reduce body fat” and the lean mass entry was “increase lean mass”. For the same molecule, the HDL cholesterol entry in series [7] (human, in vivo) is listed as “increase HDL”.
For the molecule `Cn1c(=O)c2c(ncn2C)n(C)c1=O` [caffeine, 3,7-dihydro-1,3,7-trimethyl-1H-purine-2,6-dione], the body fat result in series [4] is listed as “generally reduced”. Further, in series [4] (vs control group), the “abdominal adipose tissue weight” value is on record as “significant decrease” and the serum triglyceride levels result is listed as “significant decrease”. Besides, the weight loss result in [8] is “Significant weight loss”.
